How the values were obtained:
Tetranychus urticae = Tetranychus urticae spray test, OP-resistant (TETRUR); type: in vivo; conditions: application rate of 500 g/ha, after 6 days; for pest or weed control at 500 g/ha: Tetranychus urticae, 144 h, read-out: efficacy
How it was run: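 Mortality as % efficacy (0% = no mites killed) read 6 days after spraying. Formulation: active ingredient in acetone/dimethylformamide plus emulsifier, diluted with emulsifier-containing water, applied to Phaseolus vulgaris leaf discs carrying every life stage of OP-resistant spider mites.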

[1] = log P by HPLC (OECD Guideline 117), method [a] acidic range; type: physicochemical; conditions: for chromatographic logP: reversed-phase C18 HPLC column, acidic range; for logP[a]: HPLC, method [a] acidic range
Method: (§1) The log P values were determined analogously to OECD Guideline 117 (EC Directive 92/69/EEC) by HPLC (high-performance liquid chromatography) using reversed-phase columns (C 18), by the following methods:
[a] The LC-MS determination in the acidic range is effected at pH 2.7 with 0.1% aqueous formic acid and acetonitrile (contains 0.1% formic acid) as eluents; linear gradient from 10% acetonitrile to 95% acetonitrile.

[2] = log P by HPLC (OECD Guideline 117), method [b] neutral range; type: physicochemical; conditions: HPLC; for chromatographic logP: reversed-phase C18 HPLC column, neutral range, pH 7.8; for logP[b]: method [b] neutral range
Method: as §1
[b] The LC-MS determination in the neutral range is effected at pH 7.8 with 0.001 molar aqueous ammonium hydrogencarbonate solution and acetonitrile as eluents; linear gradient from 10% acetonitrile to 95% acetonitrile.

[3] = pH 2.7, HPLC method [a], read-out: logP[a]
[4] = pH 2.7, HPLC, pH 2.7, read-out: log P[a]

Structure (SMILES) | pest or weed control at 500 g/ha (Tetranychus urticae) | chromatographic logP [1, 3] | chromatographic logP [1, 4] | chromatographic logP [2] | efficacy (Tetranychus urticae) | logP[a] [1] | logP[b] [2]
Cc1cc(F)c(-n2nnn(-c3ccc(Cl)cc3)c2=O)cc1[S+]([O-])CC(F)(F)F (stereo not drawn) [Example 307, 1-(4-Chlorophenyl)-4-{2-fluoro-4-methyl-5-[(2,2,2-trifluoroethyl)sulphinyl]phenyl}-1,4-dihydro-5H-tetrazol-5-one] | 100% | 3.53 | 3.53 | 3.49 | – | – | –
CCC[S+]([O-])c1nn(-c2cc([S+]([O-])CC(F)(F)F)c(C)cc2F)c(=O)n1C1CC1 (stereo not drawn) [Example 237] | – | – | – | – | 100% | 2.14 | 2.08
COC1=CC(=O)N(c2cc([S+]([O-])CC(F)(F)F)c(Cl)cc2Cl)C1 (racemic) [Example 314] | – | – | – | – | 100% | 2.24 | 2.23
CCCOc1nn(-c2cc(SCC(F)(F)F)c(C)cc2F)c(=O)n1CC [Example 400] | – | – | – | – | 100% | 4.06 | 3.96
C=CCSc1nn(-c2cc([S+]([O-])CC(F)(F)F)c(C)cc2F)c(=O)n1C (racemic) [Example 291] | – | – | – | – | 100% | 2.55 | 2.51
COCc1nn(-c2cc([S+]([O-])CC(F)(F)F)c(C)cc2F)c(=O)o1 (racemic) [Example 453] | – | – | – | – | 100% | 2.08 | 2.10
Cc1cc(F)c(-n2nnn(-c3ccc(Cl)cc3)c2=O)cc1SCC(F)(F)F [Example 306, 1-(4-Chlorophenyl)-4-{2-fluoro-4-methyl-5-[(2,2,2-trifluoroethyl)sulphanyl]phenyl}-1,4-dihydro-5H-tetrazol-5-one] | 100% | 4.75 | 4.75 | 4.59 | – | – | –
CC=Cc1nn(-c2cc(SCC(F)(F)F)c(C)cc2F)c(=S)n1C1CC1 [Example 501] | – | – | – | – | 90% | 4.00 | 3.94
COC1=CC(=O)N(c2ccc(C)c([S+]([O-])CC(F)(F)F)c2)C1 (racemic) [Example 317] | – | – | – | – | 90% | 1.90 | 1.90
CCOCc1nn(-c2cc(SCC(F)(F)F)c(C)cc2F)c(=S)n1C1CC1 [Example 500] | – | – | – | – | 100% | 3.82 | 3.77
CCn1c([S+]([O-])CC)nn(-c2cc([S+]([O-])CC(F)(F)F)c(C)cc2F)c1=O (stereo not drawn) [Example 252] | – | – | – | – | 100% | 1.90 | 1.87
C=CCn1c(C(F)(F)F)nn(-c2cc(SCC(F)(F)F)c(C)cc2F)c1=O [Example 345] | – | – | – | – | 100% | 4.02 | 4.04
Cc1cc(F)c(-n2nc(Oc3ccccc3)n(C)c2=O)cc1SCC(F)(F)F [Example 158] | – | – | – | – | 100% | 3.70 | 3.66
CCCCOC1=CC(=O)N(c2cc([S+]([O-])CC(F)(F)F)c(C)cc2F)C1 (stereo not drawn) [Example 326] | – | – | – | – | 90% | 2.91 | 2.88
COn1c(C)nn(-c2cc([S+]([O-])CC(F)(F)F)c(C)cc2F)c1=O (stereo not drawn) [Example 226] | – | – | – | – | 100% | 1.76 | 1.74
Cc1ccc(-n2nc(OC(C)C)n(C3CC3)c2=O)cc1SCC(F)(F)F [Example 91] | – | – | – | – | 100% | 4.59 | 4.54
CCn1c(S(C)(=O)=O)nn(-c2cc([S+]([O-])CC(F)(F)F)c(C)cc2F)c1=O (stereo not drawn) [Example 422] | – | – | – | – | 100% | 2.12 | 2.11
COc1nn(-c2ccc(C)c(SCC(F)(F)F)c2)c(=O)n1C1CC1 [Example 90] | – | – | – | – | 100% | 3.74 | 3.67
Cc1cc(F)c(-n2nc(OC(C)C)n(C)c2=O)cc1SCC(F)(F)F [Example 151] | – | – | – | – | 100% | 3.61 | 3.53
CCn1c(C(F)(F)F)nn(-c2cc([S+]([O-])CC(F)(F)F)c(C)cc2F)c1=O (stereo not drawn) [Example 58] | – | – | – | – | 90% | 2.88 | 2.77
Cc1cc(F)c(-n2nc(SC(F)(F)F)n(C)c2=O)cc1SCC(F)(F)F [Example 283] | – | – | – | – | 100% | 3.71 | 3.64
CCCOc1nn(-c2cc([S+]([O-])CC(F)(F)F)c(C)cc2F)c(=O)n1C1CC1 (stereo not drawn) [Example 112] | – | – | – | – | 90% | 2.83 | 2.79
CC[S+]([O-])c1nn(-c2cc(SCC(F)(F)F)c(C)cc2F)c(=O)n1C1CC1 (stereo not drawn) [Example 234] | – | – | – | – | 100% | 2.68 | 2.65

Structure (SMILES) | pest or weed control at 500 g/ha (Tetranychus urticae) | chromatographic logP [1, 3] | chromatographic logP [1, 4] | chromatographic logP [2] | efficacy (Tetranychus urticae) | logP[a] [1] | logP[b] [2]
Cc1cc(F)c(-n2nc(NC(C)C)n(N)c2=O)cc1SCC(F)(F)F [Example 224] | – | – | – | – | 90% | 2.74 | 2.71
Cc1cc(F)c(-n2nc(C(C)(C)C)n(C3CC3)c2=O)cc1[S+]([O-])CC(F)(F)F (racemic) [Example 64] | – | – | – | – | 100% | 2.95 | 2.97
Cc1cc(F)c(-n2nc(SCC(F)(F)F)n(C3CC3)c2=O)cc1[S+]([O-])CC(F)(F)F (stereo not drawn) [Example 255] | – | – | – | – | 100% | 2.93 | 2.89
Cc1cc(F)c(-n2nc(SCC3CC3)n(C)c2=O)cc1[S+]([O-])CC(F)(F)F (racemic) [Example 280] | – | – | – | – | 100% | 2.82 | 2.75
Cc1cc(F)c(-n2nc(C(F)(F)F)n(C(C)C)c2=O)cc1[S+]([O-])CC(F)(F)F (stereo not drawn) [Example 363] | – | – | – | – | 100% | 3.22 | 3.18
Cc1cc(F)c(N2C(=O)C(Cl)=C(Cl)C2=O)cc1SCC(F)(F)F [Example 338] | – | – | – | – | 90% | 3.99 | 4.00
C=CCn1c([S+]([O-])C(C)C)nn(-c2cc([S+]([O-])CC(F)(F)F)c(C)cc2F)c1=O (stereo not drawn) [Example 249] | – | – | – | – | 90% | 2.32 | 2.26
Cc1cc(F)c(-n2nc(C(C)(C)C)oc2=O)cc1[S+]([O-])CC(F)(F)F (racemic) [Example 452] | – | – | – | – | 100% | 3.10 | 3.09
COc1nn(-c2cc([S+]([O-])CC(F)(F)F)c(Br)cc2F)c(=O)n1C1CC1 (stereo not drawn) [Example 172] | – | – | – | – | 100% | 2.57 | 2.53
COn1c(C(C)C)nn(-c2cc(SCC(F)(F)F)c(C)cc2F)c1=O [Example 418] | – | – | – | – | 90% | 3.52 | 3.49
CCCOc1nn(-c2cc(SCC(F)(F)F)c(C)cc2F)c(=O)n1C [Example 127] | – | – | – | – | 100% | 3.61 | 3.57
Cc1ccc(-n2nc(-n3nc(Oc4ccccc4)n(C)c3=O)n(C)c2=O)cc1SCC(F)(F)F [Example 192] | – | – | – | – | 90% | 3.76 | 3.68
Cc1cc(F)c(-n2nc(SCC(F)F)n(C3CC3)c2=O)cc1SCC(F)(F)F [Example 258] | – | – | – | – | 90% | 3.71 | 3.75
CCSc1nn(-c2cc(SCC(F)(F)F)c(C)cc2F)c(=O)n1C [Example 273, 5-(Ethylsulphanyl)-2-{2-fluoro-4-methyl-5-[(2,2,2-trifluoroethyl)sulphanyl]phenyl}-4-methyl-2,4-dihydro-3H-1,2,4-triazol-3-one] | 100% | 3.51 | 3.51 | 3.44 | – | – | –
CCC(C)c1nn(-c2cc(SCC(F)(F)F)c(C)cc2F)c(=S)n1C1CC1 (stereo not drawn) [Example 499] | – | – | – | – | 90% | 4.46 | 4.39
C=CCn1c(OCC(F)(F)F)nn(-c2cc([S+]([O-])CC(F)(F)F)c(C)cc2F)c1=O (stereo not drawn) [Example 407] | – | – | – | – | 90% | 2.94 | 2.90
CCn1c(OCC(F)(F)F)nn(-c2cc(SCC(F)(F)F)c(C)cc2F)c1=O [Example 398] | – | – | – | – | 100% | 3.84 | 3.79
COCc1nn(-c2cc(SCC(F)(F)F)c(C)cc2F)c(=O)n1N [Example 198] | – | – | – | – | 100% | 2.28 | 2.22
Cc1cc(C)c(-n2nc(OCC(F)(F)F)n(C3CC3)c2=O)cc1SCC(F)(F)F [Example 377] | – | – | – | – | 100% | 4.01 | 3.92
COc1nn(-c2cc(SCC(F)(F)F)c(Br)cc2F)c(=O)n1C1CC1 [Example 173] | – | – | – | – | 100% | 3.43 | 3.36
CNn1c(C2CC2)nn(-c2cc([S+]([O-])CC(F)(F)F)c(C)cc2F)c1=O (stereo not drawn) [Example 208] | – | – | – | – | 100% | 2.09 | 2.05
C=CCSc1nn(-c2cc(SCC(F)(F)F)c(C)cc2F)c(=O)n1C1CC1 [Example 425] | – | – | – | – | 100% | 4.10 | 4.01
